# Entries after “also recorded” stand apart in the source; their conditions may differ.
# Assays:
# CYP 2C19 = CYP 2C19 (Homo sapiens, UniProt P33261); test: CYP inhibition 2C19; assay type: in vitro ADME
# Excerpt: Table 1 Physicochemical and in Vitro ADME Properties of DF2726A. | column: DF2726A
# human COX1 = target: T1, human COX1 (Homo sapiens, UniProt P23219); test: COX1 assay, PGE2 formation from arachidonic acid, recombinant enzyme; assay type: biochemical
# T1 construct: host or cells: Sf-9
# T1 sequence (P23219 24-599): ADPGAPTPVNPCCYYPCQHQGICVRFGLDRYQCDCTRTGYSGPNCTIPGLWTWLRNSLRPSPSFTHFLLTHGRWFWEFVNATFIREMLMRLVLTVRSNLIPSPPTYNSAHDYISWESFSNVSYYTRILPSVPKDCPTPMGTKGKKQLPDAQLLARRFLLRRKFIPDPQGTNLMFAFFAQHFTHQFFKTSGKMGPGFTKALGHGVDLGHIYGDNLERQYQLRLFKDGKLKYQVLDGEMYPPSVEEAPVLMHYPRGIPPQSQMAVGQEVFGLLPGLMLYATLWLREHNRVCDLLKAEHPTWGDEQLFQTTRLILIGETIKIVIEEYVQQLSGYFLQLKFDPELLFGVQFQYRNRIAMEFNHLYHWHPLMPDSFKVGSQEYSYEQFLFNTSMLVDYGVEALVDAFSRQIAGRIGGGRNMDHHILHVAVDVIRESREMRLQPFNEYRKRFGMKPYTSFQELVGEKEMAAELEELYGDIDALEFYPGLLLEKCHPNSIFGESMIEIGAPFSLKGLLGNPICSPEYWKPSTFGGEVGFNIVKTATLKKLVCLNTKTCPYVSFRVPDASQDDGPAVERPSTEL
# Experimental: Protein binding in human, dog and rat plasma […]
# in DMSO at a final concentration of 2 mM. […]
# plasma to obtain a final concentration of 10 µM. Human, dog and rat plasma (200 µL) in triplicate […]
# vials for LC-MS/MS analysis. […]
# mM Tris-HCl (pH 8.0), 1.98 mM phenol and 1.02 µM hematine. Thereafter, the reaction was initiated by adding 4 µM (COX1) or 2 µM (COX2) of arachidonic acid and the mixture was incubated for 5 min at RT. For basal control measurements, arachidonic acid was omitted from the reaction mixture. Following incubation, t he reaction was stopped by the addition of 1 M HCl then 1 M Tris/HCl (pH 8.0) followed by cooling to 4°C.
# The fluorescence acceptor (d2 labeled PGE2) and the fluorescence donor (anti -PGE2 antibody labeled with europium Cryptate) were then added. After 120 min, the fluorescence transfer corresponding to the amount of residual PGE2 was measured at λex=337 nm, λem=620 nm and λem=665 nm using a microplate reader (Envision, Perkin Elmer). The enzyme activity was determined by dividing the signal measured at 665 nm by that measured at 620 nm (ratio). The results were expressed as a percent age inhibition of the control enzyme activity. The standard inhibitory reference compound was Diclofenac, which was tested in each experiment at several concentrations to obtain an inhibition curve from which its IC50 value was calculated. […]
# Iba-1 = test: Western blot of DRG of oxaliplatin rats, microglia marker Iba-1; assay type: in vivo, male Wistar rats; conditions: 30 mg/kg os; p < 0.01 vs OXA rats
# Experimental: Animals were sacrificed and dorsal root ganglia (DRG) (L4-L6) were removed and stored at […]. They were homogenized on ice-cold lysis buffer [20 mM Tris–HCl (pH 7.5), 10 mM NaF, 150 mM NaCl, 1% Nonidet P-40, 1 mM phenylmethylsulfonyl fluoride, 1 mM Na3VO4, leupeptin and trypsin inhibitor 10 μg/mL; 20 µl/sample, as previously described.
# After 1 h, tissue lysates were obtained by centrifugation at 20,000 g for 15 min at 4 °C. Protein concentrations were estimated by the Bio-Rad protein assay using bovine serum albumin as standard.
# DRG lysate proteins (30 μg) were dissolved in Laemmli sample buffer, boiled for 5 min, and separated on SDS-polyacrylamide gel elctrophoresis and transferred onto nitrocellulose membrane (240 mA for 40 min at room temperature). […] The protein bands were scanned and densitometrically analyzed with a model GS-700 imaging densitometer (Bio-Rad Laboratories, Milan, Italy). […]
# acetylated α-tubulin = test: Acetylated α-tubulin in F11-derived neurons (immunofluorescence, western blotting); assay type: cell-based; conditions: 24 h
# p-ERK1/2 = p-ERK1/2 western blotting in F11-derived neurons; assay type: cell-based; conditions: DF2726A 1 µM + oxaliplatin 20 µM, 24 h
# Experimental: Following neuronal differentiation, neurons were treated for 24 h with DF2726A (1 μM final concentration), oxaliplatin (Sigma-Aldrich; 20 µM final concentration), or the combination of the two molecules.
# Control and treated cells were collected and lysed in ice-cold RIPA buffer (PBS pH 7.4 containing 0.5% sodium deoxycolate, 1% Igepal, 0.1% SDS, 5 mM EDTA, 1% protease and phosphatase inhibitor cocktails; Sigma-Aldrich) as described in[22],[33]. Protein lysates (30 μg) were separated on 8–12% SDS-polyacrilamide gel and electroblotted onto polyvinyldifluoride membrane (PVDF; Sigma-Aldrich). Nonspecific binding sites were blocked by 5% non-fat dry milk (Bio-Rad Laboratories, Hercules, CA, USA) in Tris buffered saline (TBS: 20 mM Tris- HCl, pH 7.4, containing 150 mM NaCl) for 30 min at RT. […] The relative densities of immunoreactive bands were determined and normalized HRP-conjugated β-actin, using ImageJ software. […]
# CYP 2C19, sequence (P33261 whole entry): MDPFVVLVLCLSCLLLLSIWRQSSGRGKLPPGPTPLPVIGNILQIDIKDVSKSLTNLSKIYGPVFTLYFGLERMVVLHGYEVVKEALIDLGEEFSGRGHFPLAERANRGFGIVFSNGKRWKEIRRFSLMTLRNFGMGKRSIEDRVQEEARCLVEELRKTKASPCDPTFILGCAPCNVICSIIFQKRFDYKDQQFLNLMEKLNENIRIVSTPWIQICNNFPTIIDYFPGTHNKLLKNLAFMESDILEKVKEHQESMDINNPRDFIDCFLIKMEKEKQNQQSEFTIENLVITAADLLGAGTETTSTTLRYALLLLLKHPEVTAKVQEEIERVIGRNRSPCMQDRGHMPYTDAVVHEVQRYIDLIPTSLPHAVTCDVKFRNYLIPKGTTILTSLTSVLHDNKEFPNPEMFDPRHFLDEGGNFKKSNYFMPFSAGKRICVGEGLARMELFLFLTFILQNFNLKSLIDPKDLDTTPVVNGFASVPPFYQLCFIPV
smiles,measurement,setting,value
CC(C)(C(=O)O)c1ccc(Nc2nc(C(F)(F)F)cs2)cc1 [DF2726A],IC50,CYP 2C19,> 30 µM
same,COX 1 Inhibition (50 µM),human COX1,did not inhibit; also recorded: No Inhibition observed
same,Iba-1 expression in DRG of oxaliplatin rats,Iba-1,significantly reduced the expression
same,Acetylated α-tubulin in neurons treated with DF2726A alone,"acetylated α-tubulin; 1 µM, immunofluorescence",moderately present
same,"Acetylated α-tubulin in oxaliplatin-treated neurons, combination with DF2726A",acetylated α-tubulin; DF2726A 1 µM + oxaliplatin 20 µM,counteracts chemotherapy-mediated effects; also recorded: comparable to that of control cells
same,"Acetylated α-tubulin in paclitaxel-treated neurons, combination with DF2726A",acetylated α-tubulin; DF2726A + paclitaxel 10 nM,The same effect was observed; also recorded: comparable to that of control cells
same,"p-ERK1/2 protein levels, oxaliplatin-treated neurons",p-ERK1/2,comparable to those of control cells

# — PMC6692352, “DF2726A, a new IL-8 signalling inhibitor, is able to counteract chemotherapy-induced neuropathic pain” (Scientific Reports, 2019)
